Data: PubChem BioAssay AID1963960 (Molecular Pharmacology Branch, DTP, NCI, 2024)

System: MDA-MB-468 spheroids with HUVEC/MSC, viability
Assay: Anticancer human tumor MDA-MB-468 cell line growth inhibition [PI3K];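 also: spheroids exposed to agents for seven days before readout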;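 as to viability, T/C: 100% = DMSO vehicle control viability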
Conditions: for IC50: curve of first compound; for viability, T/C: stronger effect = lower value
Procedure, shortened: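 Multi-cell spheroids combine tumor cells with HUVEC and human MSCs, treated with targeted agents alone or with inavolisib, alpelisib, duvelisib or copanlisib. Concentrations fall in half-log steps from at or near clinical Cmax, or from 10 microM where Cmax is unknown; viability read-out.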

[1] = second compound 0.0316 µM, first compound 0.0316 µM
[2] = second compound 0.0316 µM, first compound 0.1 µM
[3] = second compound 0.0316 µM, first compound 0.316 µM
[4] = second compound 0.0316 µM, first compound 1 µM
[5] = second compound 0.0316 µM, first compound 3.16 µM
[6] = second compound 0.0316 µM, first compound 10 µM
[7] = second compound 0.1 µM, first compound 0.0316 µM
[8] = second compound 0.1 µM, first compound 0.1 µM
[9] = second compound 0.1 µM, first compound 0.316 µM
[10] = second compound 0.1 µM, first compound 1 µM
[11] = second compound 0.1 µM, first compound 3.16 µM
[12] = second compound 0.1 µM, first compound 10 µM
[13] = second compound 0.316 µM, first compound 0.0316 µM
[14] = second compound 0.316 µM, first compound 0.1 µM
[15] = second compound 0.316 µM, first compound 0.316 µM
[16] = second compound 0.316 µM, first compound 1 µM
[17] = second compound 0.316 µM, first compound 3.16 µM
[18] = second compound 0.316 µM, first compound 10 µM
[19] = second compound 1 µM, first compound 0.0316 µM
[20] = second compound 1 µM, first compound 0.1 µM
[21] = second compound 1 µM, first compound 0.316 µM
[22] = second compound 1 µM, first compound 1 µM
[23] = second compound 1 µM, first compound 3.16 µM
[24] = second compound 1 µM, first compound 10 µM
[25] = second compound 3.16 µM, first compound 0.0316 µM
[26] = second compound 3.16 µM, first compound 0.1 µM
[27] = second compound 3.16 µM, first compound 0.316 µM
[28] = second compound 3.16 µM, first compound 1 µM
[29] = second compound 3.16 µM, first compound 3.16 µM
[30] = second compound 3.16 µM, first compound 10 µM
[31] = second compound 10 µM, first compound 0.0316 µM
[32] = second compound 10 µM, first compound 0.1 µM
[33] = second compound 10 µM, first compound 0.316 µM
[34] = second compound 10 µM, first compound 1 µM
[35] = second compound 10 µM, first compound 3.16 µM
[36] = second compound 10 µM, first compound 10 µM

Compound `C=CC(=O)N1CCN(c2nc(=O)n(-c3c(C)ccnc3C(C)C)c3nc(-c4c(O)cccc4F)c(F)cc23)C(C)C1` (stereo unspecified) + CC(Nc1ncnc2nc[nH]c12)c1cc2cccc(Cl)c2c(=O)n1-c1ccccc1 has an IC50 (second compound 0.0316 µM) greater than 10 µM, an IC50 (second compound 0.1 µM) greater than 10 µM and an IC50 (second compound 0.316 µM) greater than 10 µM. The IC50 (second compound 1 µM) was greater than 10 µM, the IC50 (second compound 3.16 µM) was greater than 10 µM and the IC50 (second compound 10 µM) was less than 0.0316 µM. The viability, T/C [1] was 88.1%, the viability, T/C [2] was 93% and the viability, T/C [3] was 99.4%. For the same compound, the viability, T/C [4] was 99.3%, the viability, T/C [5] was 86.1% and the viability, T/C [6] was 74.2%. For the same compound, the viability, T/C [7] was 89.3%, the viability, T/C [8] was 79.8% and the viability, T/C [9] was 83.7%. It also gave a viability, T/C [10] of 94.2%, a viability, T/C [11] of 91.1% and a viability, T/C [12] of 73.7%. It also gave a viability, T/C [13] of 70.4%, a viability, T/C [14] of 74.4% and a viability, T/C [15] of 84.3%. The viability, T/C [16] was 94.7%, the viability, T/C [17] was 76.9% and the viability, T/C [18] was 61.4%. It also gave a viability, T/C [19] of 70.6%, a viability, T/C [20] of 61.4% and a viability, T/C [21] of 82.2%. It also gave a viability, T/C [22] of 84.6%, a viability, T/C [23] of 84.4% and a viability, T/C [24] of 60.6%. For the same compound, the viability, T/C [25] was 54.5%, the viability, T/C [26] was 57.1% and the viability, T/C [27] was 61.4%. The viability, T/C [28] was 68.5%, the viability, T/C [29] was 70.6% and the viability, T/C [30] was 51%. The viability, T/C [31] was 41%, the viability, T/C [32] was 46.7% and the viability, T/C [33] was 47.1%. The viability, T/C [34] was 51.1%, the viability, T/C [35] was 50.1% and the viability, T/C [36] was 37.4%.
Work on `C=CC(=O)N1CCN(c2nc(=O)n(-c3c(C)ccnc3C(C)C)c3nc(-c4c(O)cccc4F)c(F)cc23)C(C)C1` (stereo unspecified) + CC(Nc1ccc2c(c1)OCCn1cc(N3C(=O)OCC3C(F)F)nc1-2)C(N)=O yielded an IC50 (second compound 0.00316 µM) greater than 10 µM, an IC50 (second compound 0.01 µM) greater than 10 µM and an IC50 (second compound 0.0316 µM) greater than 10 µM. For the same compound, the IC50 (second compound 0.1 µM) was greater than 10 µM, the IC50 (second compound 0.316 µM) was greater than 10 µM and the IC50 (second compound 1 µM) was 7.86 µM. It also gave a viability, T/C (second compound 0.00316 µM, first compound 0.0316 µM) of 85.4%, a viability, T/C (second compound 0.00316 µM, first compound 0.1 µM) of 92.4% and a viability, T/C (second compound 0.00316 µM, first compound 0.316 µM) of 98.7%. The viability, T/C (second compound 0.00316 µM, first compound 1 µM) was 107%, the viability, T/C (second compound 0.00316 µM, first compound 3.16 µM) was 98.3% and the viability, T/C (second compound 0.00316 µM, first compound 10 µM) was 82.5%. It also gave a viability, T/C (second compound 0.01 µM, first compound 0.0316 µM) of 91.3%, a viability, T/C (second compound 0.01 µM, first compound 0.1 µM) of 101% and a viability, T/C (second compound 0.01 µM, first compound 0.316 µM) of 82.3%. It also gave a viability, T/C (second compound 0.01 µM, first compound 1 µM) of 101%, a viability, T/C (second compound 0.01 µM, first compound 3.16 µM) of 97.3% and a viability, T/C (second compound 0.01 µM, first compound 10 µM) of 73%. It also gave a viability, T/C [1] of 92.5%, a viability, T/C [2] of 95.3% and a viability, T/C [3] of 87.1%. For the same compound, the viability, T/C [4] was 86.8%, the viability, T/C [5] was 96.4% and the viability, T/C [6] was 66.1%. The viability, T/C [7] was 104%, the viability, T/C [8] was 82.5% and the viability, T/C [9] was 87.4%. The viability, T/C [10] was 102%, the viability, T/C [11] was 86% and the viability, T/C [12] was 59.6%. It also gave a viability, T/C [13] of 84.5%, a viability, T/C [14] of 66.2% and a viability, T/C [15] of 76.4%. For the same compound, the viability, T/C [16] was 91.4%, the viability, T/C [17] was 93.6% and the viability, T/C [18] was 55.9%. For the same compound, the viability, T/C [19] was 82.6%, the viability, T/C [20] was 93.9% and the viability, T/C [21] was 77.8%. For the same compound, the viability, T/C [22] was 84.7%, the viability, T/C [23] was 64% and the viability, T/C [24] was 46.3%.
`CCCS(=O)(=O)Nc1ccc(F)c(C(=O)c2c[nH]c3ncc(-c4ccc(Cl)cc4)cc23)c1F` + Cc1nc(NC(=O)N2CCCC2C(N)=O)sc1-c1ccnc(C(C)(C)C(F)(F)F)c1 was tested, and the IC50 (second compound 0.0316 µM) was 5.12 µM, the IC50 (second compound 0.1 µM) was 3.97 µM and the IC50 (second compound 0.316 µM) was 3.55 µM. The IC50 (second compound 1 µM) was 1.44 µM, the IC50 (second compound 3.16 µM) was 1.78 µM and the IC50 (second compound 10 µM) was less than 0.0316 µM. It also gave a viability, T/C [1] of 89.5%, a viability, T/C [2] of 95.7% and a viability, T/C [3] of 91.2%. For the same compound, the viability, T/C [4] was 104%, the viability, T/C [5] was 76.8% and the viability, T/C [6] was 12.9%. The viability, T/C [7] was 92.8%, the viability, T/C [8] was 97.5% and the viability, T/C [9] was 93.6%. The viability, T/C [10] was 97%, the viability, T/C [11] was 59.5% and the viability, T/C [12] was 11.6%. For the same compound, the viability, T/C [13] was 103%, the viability, T/C [14] was 86.5% and the viability, T/C [15] was 80.5%. For the same compound, the viability, T/C [16] was 105%, the viability, T/C [17] was 54.6% and the viability, T/C [18] was 9.77%. The viability, T/C [19] was 113%, the viability, T/C [20] was 76.1% and the viability, T/C [21] was 63.9%. It also gave a viability, T/C [22] of 70.8%, a viability, T/C [23] of 49.3% and a viability, T/C [24] of 9.67%. For the same compound, the viability, T/C [25] was 72.3%, the viability, T/C [26] was 61% and the viability, T/C [27] was 67.9%. For the same compound, the viability, T/C [28] was 62.9%, the viability, T/C [29] was 36.9% and the viability, T/C [30] was 10%. For the same compound, the viability, T/C [31] was 43%, the viability, T/C [32] was 28.2% and the viability, T/C [33] was 36.4%. The viability, T/C [34] was 31.1%, the viability, T/C [35] was 26.2% and the viability, T/C [36] was 7.64%.
